Toxic doses and inconclusive results are not listed.
Tested on: L1210 leukemia ip in BDF1 mice, survival T/C
Assay: NCI In Vivo Anticancer Drug Screen. Data for tumor model L1210 Leukemia (intraperitoneal) in B6D2F1 (BDF1) mice
Conditions: endpoint: mean survival time, higher = longer survival
Summary of the method: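 Each compound was tested against a transplantable tumor grown in mice. The endpoint was survival, with treated animals benchmarked against vehicle controls as a simple ratio.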

[1] = dose: 100.0 mg/kg/injection, schedule: Q01DX009 (ip), vehicle: Klucel (hydroxypropylcellulose) (HPC)
[2] = dose: 200.0 mg/kg/injection, schedule: Q01DX009 (ip), vehicle: Klucel (hydroxypropylcellulose) (HPC)
[3] = dose: 400.0 mg/kg/injection, schedule: Q01DX009 (ip), vehicle: Klucel (hydroxypropylcellulose) (HPC)
[4] = dose: 100.0 mg/kg/injection, schedule: Q01DX001 (ip), vehicle: saline
[5] = dose: 200.0 mg/kg/injection, schedule: Q01DX001 (ip), vehicle: saline
[6] = dose: 400.0 mg/kg/injection, schedule: Q01DX001 (ip), vehicle: saline
[7] = dose: 100.0 mg/kg/injection, schedule: Q04DX003 (ip), vehicle: saline
[8] = dose: 200.0 mg/kg/injection, schedule: Q04DX003 (ip), vehicle: saline
[9] = dose: 400.0 mg/kg/injection, schedule: Q04DX003 (ip), vehicle: saline

C=CCc1ccc(OC(=O)Nc2ccc(Cl)cc2)c(OC)c1
T/C (dose: 100.0 mg/kg/injection, schedule: Q04DX002 (ip), vehicle: Klucel (hydroxypropylcellulose) (HPC)): 115 % of control | T/C (dose: 200.0 mg/kg/injection, schedule: Q04DX002 (ip), vehicle: Klucel (hydroxypropylcellulose) (HPC)): 107 % of control | T/C (dose: 400.0 mg/kg/injection, schedule: Q04DX002 (ip), vehicle: Klucel (hydroxypropylcellulose) (HPC)): 100 % of control

CCc1ccc(/C(C#N)=C/c2ccc(OC)cc2)cc1
T/C [1]: 92 % of control | T/C [2]: 94 % of control | T/C [3]: 92 % of control

CN1C2CC(=O)CC1C1CC2C1
T/C (dose: 12.5 mg/kg/injection, schedule: Q04DX002 (ip), vehicle: Klucel (hydroxypropylcellulose) (HPC)): 98 % of control | T/C (dose: 25.0 mg/kg/injection, schedule: Q04DX002 (ip), vehicle: Klucel (hydroxypropylcellulose) (HPC)): 94 % of control

Cc1ccc(C2CC2S(=O)(=O)c2ccccc2)cc1 (stereo not given)
T/C [4]: 108 % of control | T/C [5]: 112 % of control | T/C [6]: 102 % of control

c1ccc([C](c2ccccc2)(c2ccccc2)[Sn]([c]2ccccc2)([c]2ccccc2)[c]2ccccc2)cc1
T/C (dose: 25.6 mg/kg/injection, schedule: Q04DX002 (ip), vehicle: saline with Tween-80): 121 % of control | T/C (dose: 64.0 mg/kg/injection, schedule: Q04DX002 (ip), vehicle: saline with Tween-80): 86 % of control | T/C (dose: 160.0 mg/kg/injection, schedule: Q04DX002 (ip), vehicle: saline with Tween-80): 86 % of control | T/C (dose: 400.0 mg/kg/injection, schedule: Q04DX002 (ip), vehicle: saline with Tween-80): 86 % of control

C[N+](C)(C)c1ncnc2c1ncn2C1CC(O)C(CO)O1 (stereo not given)
T/C (dose: 50.0 mg/kg/injection, schedule: Q01DX001 (ip), vehicle: saline): 104 % of control | T/C [4]: 96 % of control | T/C [5]: 102 % of control

CCc1ccccc1NC(=O)NC(C)C
T/C [1]: 98 % of control | T/C (dose: 100.0 mg/kg/injection, schedule: Q04DX003 (ip), vehicle: Klucel (hydroxypropylcellulose) (HPC)): 90 % of control | T/C [2]: 91 % of control | T/C (dose: 200.0 mg/kg/injection, schedule: Q04DX003 (ip), vehicle: Klucel (hydroxypropylcellulose) (HPC)): 97 % of control | T/C [3]: 95 % of control | T/C (dose: 400.0 mg/kg/injection, schedule: Q04DX003 (ip), vehicle: Klucel (hydroxypropylcellulose) (HPC)): 92 % of control

COc1cc2ccc3c(c2cc1OC)CN1CCc2cc4c(cc2C1C3)OCO4 (stereo not given)
T/C (dose: 100.0 mg/kg/injection, schedule: Q01DX009 (ip), vehicle: saline sonified): 93 % of control | T/C (dose: 100.0 mg/kg/injection, schedule: Q04DX003 (ip), vehicle: saline sonified): 109 % of control | T/C (dose: 200.0 mg/kg/injection, schedule: Q01DX009 (ip), vehicle: saline sonified): 109 % of control | T/C (dose: 200.0 mg/kg/injection, schedule: Q04DX003 (ip), vehicle: saline sonified): 98 % of control | T/C (dose: 400.0 mg/kg/injection, schedule: Q01DX009 (ip), vehicle: saline sonified): 94 % of control | T/C (dose: 400.0 mg/kg/injection, schedule: Q04DX003 (ip), vehicle: saline sonified): 101 % of control

CC(=O)Nc1cccc([As](=O)(c2cccc(NC(C)=O)c2)c2cccc(NC(C)=O)c2)c1
T/C (dose: 55.0 mg/kg/injection, schedule: Q01DX Z (ip), vehicle: methylcellulose (MC)): 98 % of control | T/C (dose: 125.0 mg/kg/injection, schedule: Q01DX Z (ip), vehicle: methylcellulose (MC)): 98 % of control

O=C(CCl)N1CCN(C(=O)CCl)c2ccccc21
T/C [4]: 94 % of control | T/C [5]: 94 % of control | T/C [6]: 97 % of control

O=N[C@@H]1CCC[C@H](Cl)C1
T/C (dose: 100.0 mg/kg/injection, schedule: Q04DX003 (ip), vehicle: saline with Tween-80): 95 % of control | T/C (dose: 200.0 mg/kg/injection, schedule: Q04DX003 (ip), vehicle: saline with Tween-80): 98 % of control | T/C (dose: 400.0 mg/kg/injection, schedule: Q04DX003 (ip), vehicle: saline with Tween-80): 95 % of control

O=NN(CCCl)C(=O)Nc1ccc(SCC(=O)O)cc1
T/C (dose: 5.0 mg/kg/injection, schedule: Q01DX001 (ip), vehicle: carboxymethylcellulose (CMC)): 117 % of control | T/C (dose: 18.0 mg/kg/injection, schedule: Q01DX001 (ip), vehicle: carboxymethylcellulose (CMC)): 161 % of control | T/C (dose: 26.0 mg/kg/injection, schedule: Q01DX001 (ip), vehicle: carboxymethylcellulose (CMC)): 175 % of control

CC12CC3CC(Br)(C1)CC(C(=O)O)(C3)C2 (stereo not given)
T/C (dose: 50.0 mg/kg/injection, schedule: Q01DX009 (ip), vehicle: saline): 103 % of control | T/C (dose: 100.0 mg/kg/injection, schedule: Q01DX009 (ip), vehicle: saline): 96 % of control | T/C [7]: 103 % of control | T/C (dose: 200.0 mg/kg/injection, schedule: Q01DX009 (ip), vehicle: saline): 91 % of control | T/C [8]: 101 % of control | T/C [9]: 110 % of control

O=C1NC(=O)C(=O)N1
T/C [7]: 96 % of control | T/C [8]: 96 % of control | T/C [9]: 86 % of control

— PubChem BioAssay AID248 (DTP/NCI, 2004)
